“And” between values parts separate entries of the source, which are not always exact repeats. Equal entries are not always repeated. Where two headings read alike, the source gives them in different places.
What was measured:
[1] = Phase 1 (AG10-001) multiple ascending dose pharmacokinetics; assay type: in vivo, human; conditions: for Cmax / Tmax / AUC(0-t): human, plasma, oral, geometric mean; for AUC(0-t): read-out: AUC0-12
Protocol: Quantitation was performed using a weighted 1/x^2 linear least squares regression analysis generated from calibration standards prepared on the day of extraction. […]

TTR in human serum = target: T1, TTR in human serum (Homo sapiens, UniProt P02766); test: FPE assay in human serum; assay type: binding; conditions: whole human serum, FPE concentration-effect
T1 construct: pooled human serum (prepared from human male AB plasma, Sigma; catalog no; H4522; TTR concentration 5 μM); tissue Sigma H4522; host or cells: pooled human serum from human male AB plasma
Text: FPE assay for binding TTR in buffer and human or dog serum. […] The FPE probe is a thioester TTR ligand that is not fluorescent by itself, however upon binding to the T4 binding site of TTR it covalently modifies lysine 15 (K15), creating a fluorescent conjugate. Ligands that bind to the T4 site of TTR will decrease FPE probe binding as observed by lower fluorescence. […] The change in fluorescence (λex=328 nm and λem=384 nm) were monitored using a microplate spectrophotometer reader (SpectraMax M5) for 6 hr at rt. […] The change in fluorescence (λex=328 nm and λem=384 nm) were monitored using a microplate spectrophotometer reader (SpectraMax M5) for 6 hr at rt.

TTR [2] = target: T2, TTR (Homo sapiens, UniProt P02766, V50M); test: Phase 2 study in ATTR-CM patients, serum TTR concentration (ARUP Prealbumin assay); assay type: in vivo; conditions: 800 mg b.i.d., V30M
T2 construct: monitoring TTR serum concentrations in trial participants; from tissue; host or cells: serum / plasma of ATTR-CM patients
Protocol: (§1) Screening and randomization will be followed by a 28-day blinded, placebo-controlled treatment period. Approximately 45 subjects are planned to enroll in the Phase 2 study.
(§2) An ARUP Prealbumin assay was also used to analyze TTR blood serum concentration in the MAD cohorts tested. ARUP analyzes samples for prealbumin using the prealbumin reagent kit provided by Roche Diagnostics and run on the Roche Diagnostics c702 module. Lowest reportable limit is 3 mg/dL.
(§3) The phase 2 clinical study was performed essentially as described in Example 3. A total of 49 patents were included instead of 45: 16 receiving 400 mg bid; 16 receiving 800 mg bid; and 17 receiving placebo.
(§4) TTR stabilization was measured ex vivo using the FPE and Western blot assays described at the beginning of the examples section. TTR stabilization was measured in vivo by monitoring TTR serum concentrations in trial participants.

TTR [3] = test: as above; assay type: in vivo, human; conditions: for Blood Serum TTR Concentration, Average Change: V122I; for Blood Serum TTR Concentration, Average Change (baseline to day 28): all genotypes, ATTR-CM patients
Protocol: as §1, §2, §3, §4

tetrameric TTR [4] = target: T3, tetrameric TTR (Homo sapiens, UniProt P02766, V50M); test: Phase 2 study, fluorescence probe (FPE) assay ex vivo; assay type: in vivo; conditions: individual with V30M TTR mutation, 800 mg b.i.d.
T3 construct: monitoring TTR serum concentrations in trial participants; from tissue; host or cells: serum / plasma of ATTR-CM patients
Protocol: (§5) Aliquots of each serum sample are plated in 96 well plates. The fluorescence changes (λex=328 nm and λem=384 nm) after addition of probe are monitored every 15 min using a fluorescent capable microplate for 6 hr at RT.
as §3, §4

tetrameric TTR [5] = target: T3, tetrameric TTR; test: Phase 2 study, Western blot of tetrameric TTR ex vivo; assay type: in vivo; conditions: individual with V30M TTR mutation, 800 mg b.i.d.
Protocol: (§6) Blood plasma samples from the subject are diluted with acidification buffer (sodium acetate, KCl, EDTA, DTT, pH about 4.0) for both the 0 and 72 hour time point. Time 0 hr samples are directly cross-linked with glutaraldehyde, and then quenched. 72 hr samples are incubated at room temperature for 72 hr and then cross-linked and quenched by the same protocol. All samples are then denatured by adding SDS gel loading buffer and boiled prior to gel loading. Each sample is separated in SDS-PAGE gels and analyzed by immunoblotting using anti-TTR antiserum (Polyclonal Rabbit Anti-Human Prealbumin. DAKO Cat# A0002). The density of all TTR bands are quantified using infrared LICOR imaging system or Fluorescence Imaging system and reported. Normalization by IgG band using LICOR 925-32232 or Invitrogen 84546.

[6] = Phase 2 study, tolerability in ATTR-CM patients; assay type: in vivo, human; conditions: symptomatic ATTR-CM patients, 28 days
Protocol: as §1, §3

[7] = Population PK analysis, effect of disease state and diuretics; assay type: in vivo, human
Text: Thus, the final model retained disease state on the central volume of distribution.
Of the 17 subjects who were on placebo, 14 were on furosemide or torsemide.

[8] = pKa values of stabilizers; assay type: physicochemical; conditions: carboxylic acid group
[9] = target: human serum albumin (HSA) (Homo sapiens, UniProt P02768); test: biochemical
Protocol: (§7) Isothermal Titration Calorimetry (ITC). Binding experiments were performed using MicroCal PEAQ-ITC at 25° C. […] 19 injections of ligand (2.0 μL each) were injected into the ITC cell (at 25° C.) to the point that TTR was fully saturated with ligand. Calorimetric data were plotted and fitted using the standard single-site binding model.

TTR [10] = target: T4, TTR (Homo sapiens, UniProt P02766); test: Isothermal titration calorimetry (ITC) with TTR in buffer; conditions: 25° C.
Protocol: as §7

tetrameric TTR [11] = target: T5, tetrameric TTR (Homo sapiens, UniProt P02766); test: Fluorescent Probe Exclusion (FPE) assay on serum of Phase 1 subjects; assay type: in vivo; design: from tissue; host or cells: serum / blood plasma of dosed healthy human volunteers; conditions: single dose of 300 mg and 800 mg
tetrameric TTR [12] = target: T5, tetrameric TTR; test: Western blot for stabilization of tetrameric TTR, Phase 1 subjects; assay type: in vivo; design: from tissue; host or cells: serum / blood plasma of dosed healthy human volunteers; conditions: 800 mg AG10 HCl q12h, day 12 predose (trough) and post dose (peak); 72h acidification
Protocol: as §6

TTR [13] = target: T4, TTR; test: Phase 2 study in ATTR-CM patients, serum TTR concentration (ARUP Prealbumin assay); assay type: in vivo; design: monitoring TTR serum concentrations in trial participants; from tissue; host or cells: serum / plasma of ATTR-CM patients; conditions: WT
Protocol: as §1, §2, §3, §4

tetrameric TTR [14] = target: T5, tetrameric TTR; test: Phase 2 study, fluorescence probe (FPE) assay ex vivo; assay type: in vivo; design: monitoring TTR serum concentrations in trial participants; from tissue; host or cells: serum / plasma of ATTR-CM patients
Protocol: as §5, §3, §4

[15] = ATTR-CM patients, FPE vs plasma concentration

Sequence of human serum albumin (HSA) (P02768 25-609): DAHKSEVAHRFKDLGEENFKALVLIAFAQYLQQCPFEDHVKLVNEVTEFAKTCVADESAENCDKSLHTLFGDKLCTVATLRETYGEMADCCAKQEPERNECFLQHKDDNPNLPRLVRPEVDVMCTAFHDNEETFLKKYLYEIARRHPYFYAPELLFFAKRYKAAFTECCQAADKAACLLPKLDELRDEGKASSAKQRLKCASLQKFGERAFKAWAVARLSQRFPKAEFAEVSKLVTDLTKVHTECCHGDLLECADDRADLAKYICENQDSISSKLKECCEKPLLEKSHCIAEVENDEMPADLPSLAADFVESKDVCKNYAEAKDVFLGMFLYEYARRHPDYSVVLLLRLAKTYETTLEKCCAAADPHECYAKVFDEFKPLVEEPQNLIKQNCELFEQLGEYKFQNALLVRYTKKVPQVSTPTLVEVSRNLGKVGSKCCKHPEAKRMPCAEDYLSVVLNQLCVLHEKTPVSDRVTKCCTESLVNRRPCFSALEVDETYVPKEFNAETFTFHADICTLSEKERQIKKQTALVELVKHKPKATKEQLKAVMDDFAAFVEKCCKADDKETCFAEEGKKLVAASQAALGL

In the case of `Cc1n[nH]c(C)c1CCCOc1cc(C(=O)O)ccc1F` [AG10, 3-(3-(3,5-dimethyl-1H-pyrazol-4-yl)propoxy)-4-fluorobenzoic acid], the “accumulation over 12 days of dosing” value ([1]; 100, 300, 800 mg every 12 hr for 12 days) is reported as “No significant accumulation”, the Cmax ([1]; 100 mg, 100 mg q12 h, Day 1) is reported as 8.67 µM and the Tmax ([1]; 100 mg, 100 mg q12 h, Day 1) is reported as 47.6 min. The AUC(0-t) ([1]; 100 mg, 100 mg q12 h, Day 1) was 46.3 µM·h, the Cmax ([1]; 100 mg, 100 mg q12 h, Day 12) was 12.1 µM and the Tmax ([1]; 100 mg, 100 mg q12 h, Day 12) was 33.7 min. It also gave an AUC(0-t) ([1]; 100 mg, 100 mg q12 h, Day 12) of 70.3 µM·h, a Cmax ([1]; 300 mg, 300 mg q12 h, Day 1) of 14.3 µM and a Tmax ([1]; 300 mg, 300 mg q12 h, Day 1) of 42.4 min. It also gave an AUC(0-t) ([1]; 300 mg, 300 mg q12 h, Day 1) of 65.2 µM·h, a Cmax ([1]; 300 mg, 300 mg q12 h, Day 12) of 23.5 µM and a Tmax ([1]; 300 mg, 300 mg q12 h, Day 12) of 33.7 min. The AUC(0-t) ([1]; 300 mg, 300 mg q12 h, Day 12) was 97.7 µM·h, the Cmax ([1]; 800 mg, 800 mg q12 h, Day 1) was 31.8 µM and the Tmax ([1]; 800 mg, 800 mg q12 h, Day 1) was 47.6 min. For the same molecule, the AUC(0-t) ([1]; 800 mg, 800 mg q12 h, Day 1) was 120 µM·h, the Cmax ([1]; 800 mg, 800 mg q12 h, Day 12) was 42.5 µM and the Tmax ([1]; 800 mg, 800 mg q12 h, Day 12) was 53.5 min. The AUC(0-t) ([1]; 800 mg, 800 mg q12 h, Day 12) was 159 µM·h, the “concentration at which complete occupancy is achieved” value (TTR in human serum) was at least 10 µM and the “Blood Serum TTR Concentration, Average Change” value (TTR [2]) was 61%. For the same molecule, the “Blood Serum TTR Concentration, Average Change” value (TTR [3]; 400 mg b.i.d.) was 51%, the “Blood Serum TTR Concentration, Average Change (baseline to day 28)” value (TTR [3]; 400 mg b.i.d.) was 36% and the “Blood Serum TTR Concentration, Average Change” value (TTR [3]; 800 mg b.i.d.) was 90%. For the same molecule, the “Blood Serum TTR Concentration, Average Change (baseline to day 28)” value (TTR [3]; 800 mg b.i.d.) was 50%, the “share of cohort with serum TTR concentrations within normal range (20-40 mg/dL)” value (TTR [3]; after 28 days of treatment, each active cohort (400 mg and 800 mg b.i.d.)) was 100% and the “target engagement at day 14 (FPE)” value (tetrameric TTR [4]) was “near complete target engagement”. The “TTR stabilization at day 28 (western blot)” value (tetrameric TTR [5]) was “near complete TTR stabilization”, the tolerability [6] was “well tolerated” and the “circulating trough concentration that is a suitable target based on stabilization of TTR” value ([7]; Phase 1 MAD 3 (800 mg Q12h) and Phase 2 ATTR-CM patients) was about 8 µM. For the same molecule, the “effect of commonly used diuretics on exposure” value ([7]; furosemide or torsemide co-administration) was “do not interfere with exposure”, the clearance ([7]; healthy adult volunteers in Phase 1 vs subjects in Phase 2, patient status or diuretics (furosemide/torsemide)) was “No difference in clearance” and the volume of distribution ([7]; subjects on furosemide/torsemide compared to healthy adult volunteers) was “lower”. The pKa [8] was 4.13, the Kd [9] was about 8 µM and the ΔH (TTR [10]) was -13.60 kcal/mol and -13.6 kcal/mol. For the same molecule, the “stabilization of TTR at peak concentrations (FPE assay)” value (tetrameric TTR [11]) was “complete stabilization”, the “stabilization of tetrameric TTR (Western blot)” value (tetrameric TTR [12]) was “full stabilization of tetrameric TTR” and the “Blood Serum TTR Concentration, Average Change” value (TTR [13]; 400 mg b.i.d.) was 32%. The “Blood Serum TTR Concentration, Average Change” value (TTR [13]; 800 mg b.i.d.) was 35%, the “target engagement by day 14 (fluorescence probe assay)” value (tetrameric TTR [14]; 400 mg b.i.d. and 800 mg b.i.d., trough and peak time points) was “near full target engagement” and the “blood plasma concentration at which full target engagement occurs” value (tetrameric TTR [14]; [15]) was “about 7.5 μM”. For the same molecule, the “blood plasma concentration at which significant target engagement occurs” value (tetrameric TTR [14]; [15]) was about 5 µM.
